The values below come from ChEMBL document CHEMBL3822442, “Synthesis and Pharmacological Characterization of Novel Glucagon-like Peptide-2 (GLP-2) Analogues with Low Systemic Clearance” (J Med Chem, 2016).

What all share (type): cell-based
The target in test [1] is T1, Glucagon-like peptide 2 receptor (Homo sapiens, UniProt O95838).
T1 sequence (O95838 whole entry): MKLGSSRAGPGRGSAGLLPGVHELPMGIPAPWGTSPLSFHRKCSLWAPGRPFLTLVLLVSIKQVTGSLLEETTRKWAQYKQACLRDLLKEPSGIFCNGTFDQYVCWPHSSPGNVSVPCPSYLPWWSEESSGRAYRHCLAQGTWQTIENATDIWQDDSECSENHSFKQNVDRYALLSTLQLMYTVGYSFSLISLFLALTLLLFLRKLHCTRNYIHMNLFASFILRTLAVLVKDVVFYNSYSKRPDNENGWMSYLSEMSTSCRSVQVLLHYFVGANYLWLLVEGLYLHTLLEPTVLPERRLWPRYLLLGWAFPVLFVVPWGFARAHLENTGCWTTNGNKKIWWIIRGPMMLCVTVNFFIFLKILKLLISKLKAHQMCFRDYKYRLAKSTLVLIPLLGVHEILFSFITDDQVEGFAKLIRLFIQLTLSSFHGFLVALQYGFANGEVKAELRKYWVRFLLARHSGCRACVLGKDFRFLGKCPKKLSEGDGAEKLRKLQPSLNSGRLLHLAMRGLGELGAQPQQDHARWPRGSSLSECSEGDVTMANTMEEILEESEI
The test is described as follows: Agonist activity at human GLP2R expressed in HEK293 cells after 5 hrs by luciferase reporter gene assay. On the technique in general: In a reporter assay the amount or activity of a reporter protein is the signal.

The target in test [2] is Glucagon-like peptide 1 receptor (Homo sapiens, UniProt P43220). The test is described as follows: Agonist activity at human GLP1R expressed in HEK293 cells after 5 hrs by luciferase reporter gene assay.
Chain of Glucagon-like peptide 1 receptor (P43220 whole entry): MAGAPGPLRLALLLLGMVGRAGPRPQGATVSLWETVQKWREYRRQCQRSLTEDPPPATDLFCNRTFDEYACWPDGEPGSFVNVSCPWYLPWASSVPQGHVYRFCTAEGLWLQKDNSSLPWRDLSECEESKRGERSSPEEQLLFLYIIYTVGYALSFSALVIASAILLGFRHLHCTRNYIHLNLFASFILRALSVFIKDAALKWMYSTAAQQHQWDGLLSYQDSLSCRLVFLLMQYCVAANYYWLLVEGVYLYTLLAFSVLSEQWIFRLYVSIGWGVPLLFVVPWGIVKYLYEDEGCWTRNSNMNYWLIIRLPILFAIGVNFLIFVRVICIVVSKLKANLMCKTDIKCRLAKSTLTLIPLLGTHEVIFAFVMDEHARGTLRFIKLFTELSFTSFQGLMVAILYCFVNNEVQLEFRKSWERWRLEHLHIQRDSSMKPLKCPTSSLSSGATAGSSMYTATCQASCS
Test [3] addresses T2, Glucagon-like peptide 2 receptor (Homo sapiens) (UniProt O95838).
T2 sequence (whole entry): T1 sequence (O95838 whole entry)
Kind of test: Potency index, ratio of compound EC50 to compound 2 EC50 for human GLP2R expressed in HEK293 cells.

The next test concerns HEK293. Kind of test: Selectivity ratio of EC50 for human GLP1R expressed in HEK293 cells to EC50 for human GLP2R expressed in HEK293.
Test [4] concerns the target Glucagon receptor (Homo sapiens) (UniProt P47871). The test is described as follows: Agonist activity at human GCGR expressed in HEK293 cells after 5 hrs by luciferase reporter gene assay.

Active and inactive are the calls of the source. No cut-off for these calls is given here.

Chain of Glucagon receptor (Homo sapiens) (P47871 whole entry): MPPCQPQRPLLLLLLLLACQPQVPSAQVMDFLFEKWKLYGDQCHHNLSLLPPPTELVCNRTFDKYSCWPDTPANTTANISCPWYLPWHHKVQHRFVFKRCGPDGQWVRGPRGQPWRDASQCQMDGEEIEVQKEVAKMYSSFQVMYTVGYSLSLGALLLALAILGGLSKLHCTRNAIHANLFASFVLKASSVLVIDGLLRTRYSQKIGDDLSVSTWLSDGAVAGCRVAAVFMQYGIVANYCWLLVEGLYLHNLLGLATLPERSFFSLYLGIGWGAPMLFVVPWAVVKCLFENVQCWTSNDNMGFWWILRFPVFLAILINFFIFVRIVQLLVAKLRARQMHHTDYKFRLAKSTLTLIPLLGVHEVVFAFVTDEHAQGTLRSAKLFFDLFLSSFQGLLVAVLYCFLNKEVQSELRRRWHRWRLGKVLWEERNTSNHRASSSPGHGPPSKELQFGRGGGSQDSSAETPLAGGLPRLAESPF

For orientation: EC50 means the concentration that produces a half-maximal response. High values mean a less potent agent, low ones a more potent agent. Consider `CCCCC(NC(=O)[C@H](CCC(=O)O)NC(=O)[C@H](CC(=O)O)NC(=O)[C@@H](CO)NC(=O)[C@H](Cc1ccccc1)NC(=O)[C@H](CO)NC(=O)CNC(=O)[C@H](CC(=O)O)NC(=O)CNC(=O)[C@@H](N)Cc1cnc[nH]1)C(=O)N[C@@H](CC(N)=O)C(=O)N[C@H](C(=O)N[C@H](C(=O)N[C@@H](CC(C)C)C(=O)N[C@@H](CC(=O)O)C(=O)N[C@@H](CC(N)=O)C(=O)N[C@@H](CC(C)C)C(=O)N[C@@H](C)C(=O)N[C@@H](C)C(=O)N[C@@H](CCCNC(=N)N)C(=O)N[C@@H](CC(=O)O)C(=O)N[C@@H](Cc1ccccc1)C(=O)N[C@H](C(=O)N[C@@H](CC(N)=O)C(=O)N[C@@H](Cc1c[nH]c2ccccc12)C(=O)N[C@@H](CC(C)C)C(=O)N[C@H](C(=O)N[C@@H](CCC(N)=O)C(=O)N[C@H](C(=O)N[C@@H](CCCCN)C(N)=O)[C@@H](C)O)[C@@H](C)CC)[C@@H](C)CC)[C@@H](C)CC)[C@@H](C)O` (stereo not given in full), for which the values for the EC50 in test [1] and in test [2] were 0.19 nM and above 1000 nM, respectively. The Ratio EC50 is 0.86 in test [3] and above 5200 in the test on HEK293. Also, the outcome in test [4] was inactive.
In the same order, the values of `CCCCC(NC(=O)[C@H](CCC(=O)O)NC(=O)[C@H](CC(=O)O)NC(=O)[C@H](CO)NC(=O)[C@H](Cc1ccccc1)NC(=O)[C@H](CO)NC(=O)CNC(=O)[C@H](CC(=O)O)NC(=O)CNC(=O)[C@@H](N)Cc1cnc[nH]1)C(=O)N[C@@H](CC(N)=O)C(=O)N[C@H](C(=O)N[C@@H](C(=O)N[C@@H](CC(C)C)C(=O)N[C@@H](CC(=O)O)C(=O)N[C@@H](CC(N)=O)C(=O)N[C@@H](CC(C)C)C(=O)N[C@@H](C)C(=O)N[C@@H](C)C(=O)N[C@@H](CCCNC(=N)N)C(=O)N[C@@H](CC(=O)O)C(=O)N[C@@H](Cc1ccccc1)C(=O)N[C@H](C(=O)N[C@@H](CC(N)=O)C(=O)N[C@@H](Cc1c[nH]c2ccccc12)C(=O)N[C@@H](CC(C)C)C(=O)N[C@H](C(=O)N[C@@H](CCC(N)=O)C(=O)N[C@H](C(=O)N[C@@H](CCCCN)C(N)=O)[C@@H](C)O)[C@@H](C)CC)[C@@H](C)CC)[C@H](C)CC)[C@@H](C)O` (stereo not given in full) are 0.35 nM, above 1000 nM, 1.6, above 2800 and “inactive”.
The corresponding values for `CCCCC(NC(=O)[C@H](CCC(=O)O)NC(=O)[C@H](CC(=O)O)NC(=O)[C@H](CO)NC(=O)[C@H](Cc1ccccc1)NC(=O)[C@H](CO)NC(=O)CNC(=O)[C@H](CC(=O)O)NC(=O)CNC(=O)[C@@H](N)Cc1cnc[nH]1)C(=O)N[C@@H](CC(N)=O)C(=O)N[C@H](C(=O)N[C@H](C(=O)N[C@@H](CC(C)C)C(=O)N[C@@H](CC(=O)O)C(=O)N[C@@H](CC(N)=O)C(=O)N[C@@H](CC(C)C)C(=O)N[C@@H](C)C(=O)N[C@@H](C)C(=O)N[C@@H](CCCNC(=N)N)C(=O)N[C@H](CC(=O)O)C(=O)N[C@@H](Cc1ccccc1)C(=O)N[C@H](C(=O)N[C@@H](CC(N)=O)C(=O)N[C@@H](Cc1c[nH]c2ccccc12)C(=O)N[C@@H](CC(C)C)C(=O)N[C@H](C(=O)N[C@@H](CCC(N)=O)C(=O)N[C@H](C(=O)N[C@@H](CCCCN)C(N)=O)[C@@H](C)O)[C@@H](C)CC)[C@@H](C)CC)[C@@H](C)CC)[C@@H](C)O` (stereo not given in full) are 0.47 nM, above 1000 nM, 2.1, above 2100 and “inactive”.
`CCCCC(NC(=O)[C@H](CCC(=O)O)NC(=O)[C@H](CC(=O)O)NC(=O)[C@H](CO)NC(=O)[C@H](Cc1ccccc1)NC(=O)[C@H](CO)NC(=O)CNC(=O)[C@H](CC(=O)O)NC(=O)CNC(=O)[C@@H](N)Cc1cnc[nH]1)C(=O)N[C@@H](CC(N)=O)C(=O)N[C@H](C(=O)N[C@H](C(=O)N[C@@H](CC(C)C)C(=O)N[C@@H](CC(=O)O)C(=O)N[C@@H](CC(N)=O)C(=O)N[C@@H](CC(C)C)C(=O)N[C@@H](C)C(=O)N[C@@H](C)C(=O)N[C@@H](CCCNC(=N)N)C(=O)N[C@@H](CC(=O)O)C(=O)N[C@@H](Cc1ccccc1)C(=O)N[C@H](C(=O)N[C@@H](CC(N)=O)C(=O)N[C@@H](Cc1c[nH]c2ccccc12)C(=O)N[C@@H](CC(C)C)C(=O)N[C@H](C(=O)N[C@@H](CCC(N)=O)C(=O)N[C@@H](C(=O)N[C@@H](CCCCN)C(N)=O)[C@H](C)O)[C@@H](C)CC)[C@@H](C)CC)[C@@H](C)CC)[C@@H](C)O` (stereo not given in full): the values for the concentration giving a half-maximal response (EC50) in test [1] and in test [2] were 4.5 nM and above 1000 nM, respectively. For the same compound, the Ratio EC50 in test [3] is 20; with HEK293 it was above 220. The outcome in test [4] was inactive.
On to `CCCCC(NC(=O)[C@H](CCC(=O)O)NC(=O)[C@H](CC(=O)O)NC(=O)[C@H](CO)NC(=O)[C@H](Cc1ccccc1)NC(=O)[C@H](CO)NC(=O)CNC(=O)[C@H](CC(=O)O)NC(=O)CNC(=O)[C@@H](N)Cc1cnc[nH]1)C(=O)N[C@@H](CC(N)=O)C(=O)N[C@@H](C(=O)N[C@H](C(=O)N[C@@H](CC(C)C)C(=O)N[C@@H](CC(=O)O)C(=O)N[C@@H](CC(N)=O)C(=O)N[C@@H](CC(C)C)C(=O)N[C@@H](C)C(=O)N[C@@H](C)C(=O)N[C@@H](CCCNC(=N)N)C(=O)N[C@@H](CC(=O)O)C(=O)N[C@@H](Cc1ccccc1)C(=O)N[C@H](C(=O)N[C@@H](CC(N)=O)C(=O)N[C@@H](Cc1c[nH]c2ccccc12)C(=O)N[C@@H](CC(C)C)C(=O)N[C@H](C(=O)N[C@@H](CCC(N)=O)C(=O)N[C@H](C(=O)N[C@@H](CCCCN)C(N)=O)[C@@H](C)O)[C@@H](C)CC)[C@@H](C)CC)[C@@H](C)CC)[C@H](C)O` (stereo not given in full), for which the results for the concentration for a half-maximal effect (EC50) in test [1] and in test [2] were 1.5 nM and above 1000 nM, respectively. Moreover, the Ratio EC50 was 6.8 in test [3] and above 660 with HEK293. In addition, the result in test [4] was inactive.
As for `CCCCC(NC(=O)[C@H](CCC(=O)O)NC(=O)[C@H](CC(=O)O)NC(=O)[C@H](CO)NC(=O)[C@H](Cc1ccccc1)NC(=O)[C@H](CO)NC(=O)CNC(=O)[C@H](CC(=O)O)NC(=O)CNC(=O)[C@@H](N)Cc1cnc[nH]1)C(=O)N[C@@H](CC(N)=O)C(=O)N[C@H](C(=O)N[C@H](C(=O)N[C@@H](CC(C)C)C(=O)N[C@@H](CC(=O)O)C(=O)N[C@@H](CC(N)=O)C(=O)N[C@@H](CC(C)C)C(=O)N[C@@H](C)C(=O)N[C@@H](C)C(=O)N[C@@H](CCCNC(=N)N)C(=O)N[C@@H](CC(=O)O)C(=O)N[C@@H](Cc1ccccc1)C(=O)N[C@H](C(=O)N[C@@H](CC(N)=O)C(=O)N[C@@H](Cc1c[nH]c2ccccc12)C(=O)N[C@@H](CC(C)C)C(=O)N[C@H](C(=O)N[C@@H](CCC(N)=O)C(=O)N[C@H](C(=O)N[C@H](CCCCN)C(N)=O)[C@@H](C)O)[C@@H](C)CC)[C@@H](C)CC)[C@@H](C)CC)[C@@H](C)O` (stereo not given in full), the EC50 in test [1] was 0.38 nM; in test [2] it was above 1000 nM. The figures for the Ratio EC50 (in test [3]; with HEK293) were 1.7 and above 2600, respectively. Further, the result in test [4] was inactive.
The corresponding values for `CCCCC(NC(=O)[C@H](CCC(=O)O)NC(=O)[C@@H](CC(=O)O)NC(=O)[C@H](CO)NC(=O)[C@H](Cc1ccccc1)NC(=O)[C@H](CO)NC(=O)CNC(=O)[C@H](CC(=O)O)NC(=O)CNC(=O)[C@@H](N)Cc1cnc[nH]1)C(=O)N[C@@H](CC(N)=O)C(=O)N[C@H](C(=O)N[C@H](C(=O)N[C@@H](CC(C)C)C(=O)N[C@@H](CC(=O)O)C(=O)N[C@@H](CC(N)=O)C(=O)N[C@@H](CC(C)C)C(=O)N[C@@H](C)C(=O)N[C@@H](C)C(=O)N[C@@H](CCCNC(=N)N)C(=O)N[C@@H](CC(=O)O)C(=O)N[C@@H](Cc1ccccc1)C(=O)N[C@H](C(=O)N[C@@H](CC(N)=O)C(=O)N[C@@H](Cc1c[nH]c2ccccc12)C(=O)N[C@@H](CC(C)C)C(=O)N[C@H](C(=O)N[C@@H](CCC(N)=O)C(=O)N[C@H](C(=O)N[C@@H](CCCCN)C(N)=O)[C@@H](C)O)[C@@H](C)CC)[C@@H](C)CC)[C@@H](C)CC)[C@@H](C)O` (stereo not given in full) are 16 nM, above 1000 nM, 73, above 62 and “inactive”.
`CCCCC(NC(=O)[C@H](CCC(=O)O)NC(=O)[C@H](CC(=O)O)NC(=O)[C@H](CO)NC(=O)[C@H](Cc1ccccc1)NC(=O)[C@H](CO)NC(=O)CNC(=O)[C@H](CC(=O)O)NC(=O)CNC(=O)[C@@H](N)Cc1cnc[nH]1)C(=O)N[C@@H](CC(N)=O)C(=O)N[C@H](C(=O)N[C@H](C(=O)N[C@@H](CC(C)C)C(=O)N[C@@H](CC(=O)O)C(=O)N[C@H](CC(N)=O)C(=O)N[C@@H](CC(C)C)C(=O)N[C@@H](C)C(=O)N[C@@H](C)C(=O)N[C@@H](CCCNC(=N)N)C(=O)N[C@@H](CC(=O)O)C(=O)N[C@@H](Cc1ccccc1)C(=O)N[C@H](C(=O)N[C@@H](CC(N)=O)C(=O)N[C@@H](Cc1c[nH]c2ccccc12)C(=O)N[C@@H](CC(C)C)C(=O)N[C@H](C(=O)N[C@@H](CCC(N)=O)C(=O)N[C@H](C(=O)N[C@@H](CCCCN)C(N)=O)[C@@H](C)O)[C@@H](C)CC)[C@@H](C)CC)[C@@H](C)CC)[C@@H](C)O` (stereo not given in full): the values for the concentration for a half-maximal effect (EC50) in test [1] and in test [2] were 1.5 nM and above 1000 nM, respectively. For the same compound, the Ratio EC50 in test [3] is 6.8; with HEK293, above 660. The result in test [4] was inactive.
